Consider 25 compounds from patent publication US11117900B2 (Vertex Pharmaceuticals Incorporated, priority 2012, dated 2021).

This assay relates to HCT116 colorectal cancer cells. Kind of assay: Cisplatin sensitization assay (96 h MTS cell viability).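 Also: compound concentration needed to lower the IC50 of Cisplatin alone by a set fold.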 The format is cell-based. Particulars: Cisplatin sensitization value. An outline of the steps: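 HCT116 cells were dosed simultaneously with compound and cisplatin as a full matrix of 2-fold serial dilutions from 10 μM top final concentration. Incubation was 96 h at 37° C., 5% CO2, followed by 1 h with MTS reagent for the viability read-out. Sensitization values were binned into +++, ++ and + categories.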

In the case of `Nc1nn2cc(F)cnc2c1C(=O)Nc1cnccc1-c1ccc(C(=O)N2CCN(C3COC3)CC2)cc1F` [I-C-51, 2-amino-6-fluoro-N-(4-(2-fluoro-4-(4-(oxetan-3-yl)piperazine-1-carbonyl)phenyl)pyridin-3-yl)pyrazolo[1,5-a]pyrimidine-3-carboxamide], the “Cisplatin Sensitization Assay” value is “++ (Compounds with a Cisplatin sensitization value >0.02 μM but <0.2 μM are marked with “++.”)”.
As to `CN1CCC[C@@H]1C(=O)N1CCN(c2c(F)cncc2NC(=O)c2c(N)nn3cc(F)cnc23)CC1` [I-N-181, (R)-2-amino-6-fluoro-N-(5-fluoro-4-(4-(1-methylpyrrolidine-2-carbonyl)piperazin-1-yl)pyridin-3-yl)pyrazolo[1,5-a]pyrimidine-3-carboxamide], the “Cisplatin Sensitization Assay” value was “+++ (Compounds with a Cisplatin sensitization value of <0.02 μM are marked with “+++.”)”.
As for `CN1CCC(Oc2ccncc2NC(=O)c2c(N)nn3cc(F)cnc23)CC1` [I-O-12, 2-amino-6-fluoro-N-(4-((1-methylpiperidin-4-yl)oxy)pyridin-3-yl)pyrazolo[1,5-a]pyrimidine-3-carboxamide], the “Cisplatin Sensitization Assay” value is “+++ (Compounds with a Cisplatin sensitization value of <0.02 μM are marked with “+++.”)”.
Consider `Cc1nnc(C2CCN(c3ccncc3NC(=O)c3c(N)nn4cc(F)cnc34)CC2)o1` [I-N-265, 2-amino-6-fluoro-N-(4-(4-(5-methyl-1,3,4-oxadiazol-2-yl)piperidin-1-yl)pyridin-3-yl)pyrazolo[1,5-a]pyrimidine-3-carboxamide], for which the “Cisplatin Sensitization Assay” value was “++ (Compounds with a Cisplatin sensitization value >0.02 μM but <0.2 μM are marked with “++.”)”.
As for `COC1CN(C2CCN(c3ccncc3NC(=O)c3c(N)nn4cc(Cl)cnc34)CC2)C1` [I-N-107, 2-amino-6-chloro-N-(4-(4-(3-methoxyazetidin-1-yl)piperidin-1-yl)pyridin-3-yl)pyrazolo[1,5-a]pyrimidine-3-carboxamide], the “Cisplatin Sensitization Assay” value was “+++ (Compounds with a Cisplatin sensitization value of <0.02 μM are marked with “+++.”)”.
The same measure for `Nc1nn2cc(F)cnc2c1C(=O)Nc1cnccc1C1CCN(C(=O)C23CCN(CC2)CC3)CC1` [I-C-18, 2-amino-6-fluoro-N-(4-(1-(quinuclidine-4-carbonyl)piperidin-4-yl)pyridin-3-yl)pyrazolo[1,5-a]pyrimidine-3-carboxamide]: “+ (Compounds with a Cisplatin sensitization value >0.2 μM but <5 μM are marked with “+.”)”.
In the case of `N#CCc1cnc2c(C(=O)Nc3cnccc3OC3CCOC3)c(N)nn2c1` (racemic) [I-O-37, (R,S)-2-amino-6-(cyanomethyl)-N-(4-((tetrahydrofuran-3-yl)oxy)pyridin-3-yl)pyrazolo[1,5-a]pyrimidine-3-carboxamide], the “Cisplatin Sensitization Assay” value was “+++ (Compounds with a Cisplatin sensitization value of <0.02 μM are marked with “+++.”)”.
`Nc1nn2cc(F)cnc2c1C(=O)Nc1cncc(C2CC2)c1N1CCN(C2COC2)CC1` [I-N-32, 2-amino-N-(5-cyclopropyl-4-(4-(oxetan-3-yl)piperazin-1-yl)pyridin-3-yl)-6-fluoropyrazolo[1,5-a]pyrimidine-3-carboxamide]: the “Cisplatin Sensitization Assay” value is reported as “++ (Compounds with a Cisplatin sensitization value >0.02 μM but <0.2 μM are marked with “++.”)”.
As for `CN1CCN(C(=O)N2CCN(c3c(F)cncc3NC(=O)c3c(N)nn4cc(F)cnc34)CC2)CC1` [I-N-140, 2-amino-6-fluoro-N-(5-fluoro-4-(4-(4-methylpiperazine-1-carbonyl)piperazin-1-yl)pyridin-3-yl)pyrazolo[1,5-a]pyrimidine-3-carboxamide], the “Cisplatin Sensitization Assay” value is “+++ (Compounds with a Cisplatin sensitization value of <0.02 μM are marked with “+++.”)”.
The same measure for `Cn1ccc(-c2ccncc2NC(=O)c2c(N)nn3cc(F)cnc23)n1` [I-C-68, 2-amino-6-fluoro-N-(4-(1-methyl-1H-pyrazol-3-yl)pyridin-3-yl)pyrazolo[1,5-a]pyrimidine-3-carboxamide]: “+ (Compounds with a Cisplatin sensitization value >0.2 μM but <5 μM are marked with “+.”)”; for `Nc1nn2cc(F)cnc2c1C(=O)Nc1cncc(Cl)c1N1CCC(C(=O)N2CCN3CCC2CC3)CC1` [I-G-66, N-(4-(4-(1,4-diazabicyclo[3.2.2]nonane-4-carbonyl)piperidin-1-yl)-5-chloropyridin-3-yl)-2-amino-6-fluoropyrazolo[1,5-a]pyrimidine-3-carboxamide]: “+++ (Compounds with a Cisplatin sensitization value of <0.02 μM are marked with “+++.”)”.
In the case of `CN1CCC(NC(=O)C2CCN(c3c(F)cncc3NC(=O)c3c(N)nn4cc(F)cnc34)CC2)CC1` [I-G-20, 2-amino-6-fluoro-N-(5-fluoro-4-(4-((1-methylpiperidin-4-yl)carbamoyl)piperidin-1-yl)pyridin-3-yl)pyrazolo[1,5-a]pyrimidine-3-carboxamide], the “Cisplatin Sensitization Assay” value is listed as “+ (Compounds with a Cisplatin sensitization value >0.2 μM but <5 μM are marked with “+.”)”.
For `Nc1nn2cc(F)cnc2c1C(=O)Nc1cncc(F)c1N1CC(=O)N2CCCC2C1` (stereo not shown) [I-N-232, 2-amino-6-fluoro-N-(5-fluoro-4-(4-oxohexahydropyrrolo[1,2-a]pyrazin-2(1H)-yl)pyridin-3-yl)pyrazolo[1,5-a]pyrimidine-3-carboxamide], the “Cisplatin Sensitization Assay” value is recorded as “++ (Compounds with a Cisplatin sensitization value >0.02 μM but <0.2 μM are marked with “++.”)”.
Regarding `Nc1nn2cc(F)cnc2c1C(=O)Nc1cncc2c1CCNC2` [I-C-7, 2-amino-6-fluoro-N-(5,6,7,8-tetrahydro-2,7-naphthyridin-4-yl)pyrazolo[1,5-a]pyrimidine-3-carboxamide], the “Cisplatin Sensitization Assay” value is on record as “++ (Compounds with a Cisplatin sensitization value >0.02 μM but <0.2 μM are marked with “++.”)”.
For the compound `Cc1ccc(-c2ccncc2NC(=O)c2c(N)nn3cc(F)cnc23)cn1` [I-C-22, 2-amino-6-fluoro-N-(6-methyl-[3,4′-bipyridin]-3′-yl)pyrazolo[1,5-a]pyrimidine-3-carboxamide], the “Cisplatin Sensitization Assay” value is recorded as “++ (Compounds with a Cisplatin sensitization value >0.02 μM but <0.2 μM are marked with “++.”)”.
In the case of `Cc1nccnc1-c1ccncc1NC(=O)c1c(N)nn2cc(F)cnc12` [I-C-62, 2-amino-6-fluoro-N-(4-(3-methylpyrazin-2-yl)pyridin-3-yl)pyrazolo[1,5-a]pyrimidine-3-carboxamide], the “Cisplatin Sensitization Assay” value is “++ (Compounds with a Cisplatin sensitization value >0.02 μM but <0.2 μM are marked with “++.”)”.
The same measure for `Nc1nn2cc(F)cnc2c1C(=O)Nc1cncc(Cl)c1N1CCC(C(=O)N2CCN3CCC2C3)CC1` (stereo not shown) [I-G-69, N-(4-(4-(1,4-diazabicyclo[3.2.1]octane-4-carbonyl)piperidin-1-yl)-5-chloropyridin-3-yl)-2-amino-6-fluoropyrazolo[1,5-a]pyrimidine-3-carboxamide]: “+++ (Compounds with a Cisplatin sensitization value of <0.02 μM are marked with “+++.”)”; for `Nc1nn2cc(F)cnc2c1C(=O)Nc1cnccc1-c1ccc(C(=O)N2CCN3CCC2CC3)cc1` [I-C-48, N-(4-(4-(1,4-diazabicyclo[3.2.2]nonane-4-carbonyl)phenyl)pyridin-3-yl)-2-amino-6-fluoropyrazolo[1,5-a]pyrimidine-3-carboxamide]: “+++ (Compounds with a Cisplatin sensitization value of <0.02 μM are marked with “+++.”)”; for `Nc1nn2cc(Cl)cnc2c1C(=O)Nc1cnccc1N1CCNC(C(F)(F)F)C1` (stereo not shown) [I-N-70, 2-amino-6-chloro-N-(4-(3-(trifluoromethyl)piperazin-1-yl)pyridin-3-yl)pyrazolo[1,5-a]pyrimidine-3-carboxamide]: “++ (Compounds with a Cisplatin sensitization value >0.02 μM but <0.2 μM are marked with “++.”)”.
`Cc1nonc1N1CCN(c2ccncc2NC(=O)c2c(N)nn3cc(F)cnc23)CC1` [I-N-260, 2-amino-6-fluoro-N-(4-(4-(4-methyl-1,2,5-oxadiazol-3-yl)piperazin-1-yl)pyridin-3-yl)pyrazolo[1,5-a]pyrimidine-3-carboxamide]: the “Cisplatin Sensitization Assay” value is “+++ (Compounds with a Cisplatin sensitization value of <0.02 μM are marked with “+++.”)”.
On to `Nc1nn2cc(F)cnc2c1C(=O)Nc1cnccc1N1CCC(C(=O)N2CCC2)CC1` [I-G-77, 2-amino-N-(4-(4-(azetidine-1-carbonyl)piperidin-1-yl)pyridin-3-yl)-6-fluoropyrazolo[1,5-a]pyrimidine-3-carboxamide], for which the “Cisplatin Sensitization Assay” value is “+++ (Compounds with a Cisplatin sensitization value of <0.02 μM are marked with “+++.”)”.
For `N#C[C@@H]1CCN(c2c(Cl)cncc2NC(=O)c2c(N)nn3cc(F)cnc23)C1` [I-N-285, (R)-2-amino-N-(5-chloro-4-(3-cyanopyrrolidin-1-yl)pyridin-3-yl)-6-fluoropyrazolo[1,5-a]pyrimidine-3-carboxamide] the value was “++ (Compounds with a Cisplatin sensitization value >0.02 μM but <0.2 μM are marked with “++.”)”.
As to `CC(C)(C#N)c1cnc2c(C(=O)Nc3cncc(F)c3N3CCN(C4COC4)CC3)c(N)nn2c1` [I-N-144], the “Cisplatin Sensitization Assay” value is given as “+++ (Compounds with a Cisplatin sensitization value of <0.02 μM are marked with “+++.”)”.
For `CN1CCN(c2c(NC(=O)c3c(N)nn4cc(F)cnc34)cncc2C2CC2)CC1` [I-N-5, 2-amino-N-(5-cyclopropyl-4-(4-methylpiperazin-1-yl)pyridin-3-yl)-6-fluoropyrazolo[1,5-a]pyrimidine-3-carboxamide] the value was “++ (Compounds with a Cisplatin sensitization value >0.02 μM but <0.2 μM are marked with “++.”)”; for `Nc1nn2cc(Cl)cnc2c1C(=O)Nc1cnccc1N1CCC(N2CCC3(COC3)C2)CC1` [I-N-99, N-(4-(4-(2-oxa-6-azaspiro[3.4]octan-6-yl)piperidin-1-yl)pyridin-3-yl)-2-amino-6-chloropyrazolo[1,5-a]pyrimidine-3-carboxamide], “+++ (Compounds with a Cisplatin sensitization value of <0.02 μM are marked with “+++.”)”.
